Measurements as given in article PMC5380659, “Unique charge-dependent constraint on collagen recognition by integrin α10β1” (Matrix Biology, 2017).
“Also recorded” adds a separate entry of the source.

Assays:
α10β1 = assay: Overall recognition by α10β1 (I domain and C2C12-α10β1 cells, summary); conditions: abstract and discussion; I domain and/or C2C12-α10β1 cells
Experimental: I domain adhesion was determined colorimetrically, as described, here termed solid phase binding assay (SPBA). Peptides were coated at 10 μg/ml for 1 h at 22 °C on Immulon-2 HB 96-well plates (Thermo Life Sciences, Basingstoke, UK), and blocked for 1 h with 200 μl of TBS containing 50 mg/ml bovine serum albumin. Wells were washed four times with 200 μl of the adhesion buffer (TBS with 1 mg/ml bovine serum albumin) before adding 100 μl of adhesion buffer containing 10 μg/ml of recombinant GST I domains in the presence of either 2 mM MgCl2 or EDTA for 1 h at room temperature. Wells were washed five times with 200 μl of adhesion buffer containing MgCl2 or EDTA, before adding 100 μl of adhesion buffer containing the anti-GST-HRP conjugate at 1:10,000 dilution for 1 h at room temperature. After washing, colour was developed using an ImmunoPure TMB Substrate Kit (Pierce) according to the manufacturer's instructions.
(§1) The mouse myoblast cell line, C2C12, (control and transfectants, C2C12-α1β1, C2C12-α2β1, C2C12-α10β1 or C2C12-α11β1) was maintained in RPMI medium containing 10% fetal bovine serum, 2 mM glutamine, 100 IU/ml penicillin, 100 μg/ml streptomycin, and 2.5 μg/ml amphotericin. Cells were harvested by centrifugation, washed, and suspended at 0.5 × 10^6/ml in Tris-buffered saline supplemented with 5.5 mM glucose and either 2 mM EDTA or 2 mM MgCl2. SPBA was performed as follows: 100 μl of the cell suspension was added to peptide-coated wells [42] at 20 °C for 60 min. Cell adhesion was determined colorimetrically after lysis, using a lactate dehydrogenase (LDH)-based cell detection kit (Roche Diagnostics) according to the supplier's instructions.
(§2) To quantitate C2C12-α10β1 binding to collagen peptides, we used the impedance-based xCELLigence system (Acea) that allows label-free, dynamic monitoring of cell adhesion in real-time. The assay system expresses the adhesion-dependent rise in well impedance in units of cell index (CI), defined as (Rn − Rb) / 15; where Rn is the electrical impedance of each cell-containing well and Rb is the background impedance of the well with medium alone

C2C12-α10β1 cells [1] = assay: LDH-based SPBA of C2C12-α10β1 cell adhesion; design: species or system mouse; conditions: short THPs, 2 mM Mg^2 +, 1 h, Fig. 4B
Experimental: The mouse myoblast cell line, C2C12-α10β1 clone, expresses α10β1 as its sole collagen-binding integrin [16]. To investigate the binding of α10β1 to collagen in a cellular and whole integrin context, therefore, the adhesion of C2C12-α10β1 cells to Toolkits II and III was performed using two different approaches. First, SPBA was used, with lactate dehydrogenase to report the presence of adherent cells, after lysis, as described in Experimental. […] C2C12-α10B1 cells generally bound more prominently to those weaker peptides that supported just-observable binding of free I-domain. This may reflect avidity of the receptor-populated cell surface for the peptide-coated wells, or perhaps up-regulation of integrin affinity following receptor engagement. It is also possible that some cell binding reflects specific indirect interactions. For example, fibronectin, available either by intrinsic expression or from the serum supplement, binds well to II-44, and can also bind integrin αVβ3 [21].
Fig. 2 Binding of α10β1-transfected C2C12 cells to Collagen Toolkits. 96-well plates were coated with peptides as for Fig. 1, then C2C12-α10β1 cells (5 × 10^4 per well) were added and incubated for 1 h in the presence of either 2 mM MgCl2 or 2 mM EDTA as above. A: binding to Toolkit II. B: binding to Toolkit III.
as §1

C2C12-α10β1 cells [2] = assay: xCELLigence real-time adhesion of C2C12-α10β1 cells; type: cell-based, mouse; conditions: 2.5 × 10^4 cells/well, 2 mM Mg^2 +, over 1 h, Fig. 3A
Experimental: Fig. 3 Binding of α10β1-transfected C2C12 cells to collagens and selected Toolkit peptides. Peptides or collagens were coated on ePlates as described, then cells were added in the presence of 2 mM Mg^2 + or EDTA, and Cell Index value was collected over 1 h. […] B: time courses are shown of adhesion to selected Toolkit peptides or GPP-10.
as §2
Briefly, C2C12 cells were seeded at 2.5 × 10^4 cells/well in an E-plate (Roche Applied Science) pre-coated with peptides as for SPBA, and CI was measured for up to 2 h.

Row | Molecule | Recognition by α10β1, summary (α10β1) | Adhesion of C2C12-α10β1 cells to short triple-helical peptides (C2C12-α10β1 cells [1]) | Cell adhesion to collagens (Cell Index, endpoint) (C2C12-α10β1 cells [2])
1 | GAOGER [integrin motif in collagens II, III, IV, VI, VII, IX] | weak ligand | – | –
2 | GFOGEK [short triple-helical peptide; motif in collagens IV, VI, X] | now shown to bind α10β1 | less well | –
3 | GKOGER [motif occurring only in collagen X and in the α2 chain of collagen I] | compromised in the context of α10β1; also recorded: α10-repellent | – | –
4 | GLKGEN [short triple-helical peptide containing GLKGEN] | – | less well | –
5 | GLOGEA [short triple-helical peptide; motif in collagens IV, XI, XXVII] | – | bound strongly | –
6 | GMOGER [short triple-helical peptide containing GMOGER] | – | less well | –
7 | GRSGET [short THP containing GRSGET, motif unique to collagen II] | not recognised by α10β1; also recorded: α10-repellent | – | –
8 | collagen III: intact collagen III (protein) QQEAVEGGCSHLGQSYADRDVWKPEPCQICVCDSGSVLCDDIICDDQELDCPNPEIPFGECCAVCPQPPTAPTRPPNGQGPQGPKGDPGPPGIPGRNGDPGIPGQPGSPGSPGPPGICESCPTGPQNYSPQYDSYDVKSGVAVGGLAGYPGPAGPPGPPGPPGTSGHPGSPGSPGYQGPPGEPGQAGPSGPPGPPGAIGPSGPAGKDGESGRPGRPGERGLPGPPGIKGPAGIPGFPGMKGHRGFDGRNGEKGETGAPGLKGENGLPGENGAPGPMGPRGAPGERGRPGLPGAAGARGNDGARGSDGQPGPPGPPGTAGFPGSPGAKGEVGPAGSPGSNGAPGQRGEPGPQGHAGAQGPPGPPGINGSPGGKGEMGPAGIPGAPGLMGARGPPGPAGANGAPGLRGGAGEPGKNGAKGEPGPRGERGEAGIPGVPGAKGEDGKDGSPGEPGANGLPGAAGERGAPGFRGPAGPNGIPGEKGPAGERGAPGPAGPRGAAGEPGRDGVPGGPGMRGMPGSPGGPGSDGKPGPPGSQGESGRPGPPGPSGPRGQPGVMGFPGPKGNDGAPGKNGERGGPGGPGPQGPPGKNGETGPQGPPGPTGPGGDKGDTGPPGPQGLQGLPGTGGPPGENGKPGEPGPKGDAGAPGAPGGKGDAGAPGERGPPGLAGAPGLRGGAGPPGPEGGKGAAGPPGPPGAAGTPGLQGMPGERGGLGSPGPKGDKGEPGGPGADGVPGKDGPRGPTGPIGPPGPAGQPGDKGEGGAPGLPGIAGPRGSPGERGETGPPGPAGFPGAPGQNGEPGGKGERGAPGEKGEGGPPGVAGPPGGSGPAGPPGPQGVKGERGSPGGPGAAGFPGARGLPGPPGSNGNPGPPGPSGSPGKDGPPGPAGNTGAPGSPGVSGPKGDAGQPGEKGSPGAQGPPGAPGPLGIAGITGARGLAGPPGMPGPRGSPGPQGVKGESGKPGANGLSGERGPPGPQGLPGLAGTAGEPGRDGNPGSDGLPGRDGSPGGKGDRGENGSPGAPGAPGHPGPPGPVGPAGKSGDRGESGPAGPAGAPGPAGSRGAPGPQGPRGDKGETGERGAAGIKGHRGFPGNPGAPGSPGPAGQQGAIGSPGPAGPRGPVGPSGPPGKDGTSGHPGPIGPPGPRGNRGERGSEGSPGHPGQPGPPGPPGAPGPCCGGVGAAAIAGIGGEKAGGFAPYYG | – | – | bound quite well
